Measured values from patent publication US12035716B2, “Treatment for seeds disinfection” (VILMORIN & CIE, priority 2013, dated 2024).
Like-named read-outs stand apart in the source and are kept apart here.

Experiments:
[1] = test system: Clavibacter michiganensis subsp. michiganensis; assay: Disinfection of tomato seeds naturally infected by CMM; ISF detection method; type: in vivo; settings: 1% Ca(ClO)2
Excerpt: (§1) Tomato seeds have been obtained from commercial seed lot naturally infected by CMM in the production field. Vacuum treatment was done by vacuum infiltration (VI) method using 4 liters of 1% calcium hypochlorite, as described hereafter. The vacuum was applied while seeds were located in a perforated basket above the disinfectant solution in a closed chamber. A vacuum pressure was applied at maximal reachable vacuum pressure of about 975-985 mbar, followed by submerging the seeds into the solution and releasing the vacuum. Vacuum/de-vacuum cycles were repeated 4 times and at the end, all the seeds sunk. The seeds were collected, rinsed for 5 minutes and dried. Soaking treatment was done in the same solution for one hour after VI treatment or without VI treatment.
Clavibacter michiganensis subsp. michiganensis infection results were obtained by using the “method for the detection of Clavibacter michiganensis subsp. michiganensis on tomato seed” according to the International Seed Federation (ISF) Manual of Seed Health Methods, as can be found in the internet site: http://www.worldseed.org/isf/ishi_vegetable.html.

tomato seeds = assay: Germination and transplant tests of treated tomato seeds (AOSA, Example 8); type: in vivo; settings: 1% Ca(ClO)2; for UNIF (Uniform Transplants) / UT (Useable Transplants): trays in a greenhouse
Excerpt: as §1
The germination tests have been done according to the Association of Official Seed Analysts (AOSA) (http://www.aosaseed.com/).

CGMMV = settings: Tri Sodium Phosphate 10%, negative control 0.13
Protocol: In this case, cucumber seeds have been obtained from a commercial seed lot, naturally infected by CGMMV in the production field.
The seeds were disinfected by standard method and by vacuum infiltration method. In this case, vacuum is applied at maximal pressure of 975-985 mbar from the beginning. […] The vacuum cycles continue until floating seeds are no longer sinking. The floating seeds are then removed and discarded. This process takes 15-20 minutes.
In this case two chemicals were used.
We also tested the effect of different concentration of Na-Dichloroisocyanurate applied by vacuum infiltration on CGMMV and germination (table II) treatment E is untreated control; treatment F is vacuum infiltration of Na-Dichloroisocyanurate 0.75%; treatment G is vacuum infiltration of Na-Dichloroisocyanurate 1.5% and treatment H is vacuum infiltration of Na-Dich loroisocyanurate 2.0%.
CGMMV was tested by ELISA assay according to method 7-026 of the international rules for seed testing annex to chapter 7: seed health testing methods; International Seed Testing Association, Zurich, Switzerland, 2010.

cucumber seeds = settings: Tri Sodium Phosphate 10%
Protocol: The germination test was performed according to Annex to chapter 5, International Rules for Seed Testing, International Seed Testing Association, Zurich, Switzerland, 1996.

Acidovorax citrulli = settings: cited from earlier work; for Eradication of seed borne Acidovorax citrulli inoculum: chemical seed treatment of infected seeds (Dutta et al. 2012)

[Ca+2].[O-]Cl.[O-]Cl [Ca(ClO)2, calcium hypochlorite]
CMM infection results ([1]; 1 hr soak alone): Positive
CMM infection results ([1]; VI alone): Negative
CMM infection results ([1]; VI then 1 hr soak): Negative
EN (Energy, early germination counts on Day 5) (tomato seeds; 1 hr soak alone): 98
OG (Optimum Germination, counted on Day 14) (tomato seeds; 1 hr soak alone): 98
UNIF (Uniform Transplants) (tomato seeds; 1 hr soak alone): 92
UT (Useable Transplants) (tomato seeds; 1 hr soak alone): 95
EN (Energy, early germination counts on Day 5) (tomato seeds; VI alone): 96
OG (Optimum Germination, counted on Day 14) (tomato seeds; VI alone): 96
UNIF (Uniform Transplants) (tomato seeds; VI alone): 91
UT (Useable Transplants) (tomato seeds; VI alone): 94
EN (Energy, early germination counts on Day 5) (tomato seeds; VI then 1 hr soak): 99
OG (Optimum Germination, counted on Day 14) (tomato seeds; VI then 1 hr soak): 99
UNIF (Uniform Transplants) (tomato seeds; VI then 1 hr soak): 89
UT (Useable Transplants) (tomato seeds; VI then 1 hr soak): 92

O=P([O-])([O-])[O-].[Na+].[Na+].[Na+] [Tri Sodium Phosphate]
ELISA assay result (rate of extinction at A405) (CGMMV; standard disinfection): 0.34
ELISA assay result (rate of extinction at A405) (CGMMV; vacuum infiltration): 0.19
Germination % (cucumber seeds; standard disinfection): 100%
Germination % (cucumber seeds; vacuum infiltration): 100%

Cl [hydrochloric acid]
Eradication of seed borne Acidovorax citrulli inoculum (Acidovorax citrulli): generally fail to eradicate the bacterium from the infected seeds
BFB seedling transmission (Acidovorax citrulli; in vivo): significantly reduce BFB seedling transmission

CC(=O)OO [peroxyacetic acid]
Eradication of seed borne Acidovorax citrulli inoculum (Acidovorax citrulli): generally fail to eradicate the bacterium from the infected seeds
BFB seedling transmission (Acidovorax citrulli; seed treatment (Walcott 2005)): significantly reduce BFB seedling transmission

OCl [sodium hypochlorite]
Eradication of seed borne Acidovorax citrulli inoculum (Acidovorax citrulli): generally fail to eradicate the bacterium from the infected seeds
BFB seedling transmission (Acidovorax citrulli; seed treatment (Walcott 2005)): significantly reduce BFB seedling transmission
